Where two headings read alike, the source gives them in different places.
Experiment: Pharmacokinetic study after oral dosing, rat
Type: in vivo, SD Rat
Conditions: for Cmax / AUC(0-t) / concentration at 24 h: male, SD (Sprague-Dawley), rat, in vivo, po, oral, suspension in 0.5% methocel + 0.1% tween 80 in water, SD Rat male, Fed, 5 mL/kg; for AUC(0-t): read-out: AUC0-24 h; for concentration at 24 h: read-out: C24 h
Procedure: The pharmacokinetic profile of (S)-4-(2,2-difluoro-7-((5-methoxy-7-methyl-1H-indol-4-yl)methyl)-7-azaspiro[3.5]nonan-6-yl)benzoic acid was assessed in rats, dogs or non-human primates (NHPs) as the amorphous compound as a solution in 20% kleptose in water and as a suspension of Form A in 0.5% methocel+0.1% tween 80 in water.
Amorphous (S)-4-(2,2-difluoro-7-((5-methoxy-7-methyl-1H-indol-4-yl)methyl)-7-azaspiro[3.5]nonan-6-yl)benzoic acid was weighed into a glass vial with a magnetic stir bar to give formulations at dose concentrations of 0.1-1000 mg/kg. Approx. ⅓ the final volume of 20% kleptose (hydroxypropyl β-cyclodextrin, Aldrich, CAS #128446-35-5) in water was added to the vial (to afford either a 5 mL/kg or 10 mL/kg dose volume, depending on the species). The mixture was basified to a pH of 8.5 to 10 using dropwise addition of 2-5 M aqueous NaOH solution, with pH monitoring. The suspension was stirred, vortexed, and sonicated for 15-20 minutes to afford a homogenous mixture. The second ⅓ of the final volume of 20% kleptose was added to the vial and further stirred, vortexed, and sonicated for 15-20 minutes to afford a homogenous mixture. The pH was monitored and further pH adjustment to pH 8.5 to 10, if necessary, can be applied. The final ⅓ the final volume of 20% kleptose was added to the vial and further stirred, vortexed, and sonicated for 15-20 minutes to afford a homogenous solution. The pH of the solution was adjusted to a pH of 7.5 to 8.0 with dropwise addition of 1.0 M aqueous HCl solution with gentle stirring. The formulation should remain in solution.
Form A crystalline (S)-4-(2,2-difluoro-7-((5-methoxy-7-methyl-1H-indol-4-yl)methyl)-7-azaspiro[3.5]nonan-6-yl)benzoic acid was weighed into a glass vial with a magnetic stir bar to give formulations at dose concentrations of 0.1-1000 mg/kg. The crystalline material should preferably have a particle size with a D50 below 50 μm, and ideally with a D50 below 5 μm. The desired volume of 0.5% methocel (viscosity 400 cP, Aldrich, CAS #9004-67-5)/0.1% tween-80 (Aldrich, CAS #9005-65-6) was added (to afford a 5 mL/kg dose volume). The contents of the vial were stirred at 400-500 rpm on a stir-plate. Gentle vortex or bath sonication can be applied to break down any large clumps. The vial should be mixed well to ensure homogeneity right before animal dosing.

[1] = 30 mg/kg, 30 mg/kg, particle size D50 = 5.1 μm
[2] = 300 mg/kg, 300 mg/kg, particle size D50 = 5.1 μm
[3] = 300 mg/kg, 300 mg/kg, particle size D50 = 101 μm

## COc1cc(C)c2[nH]ccc2c1CN1CCC2(C[C@H]1c1ccc(C(=O)O)cc1)CC(F)(F)C2 [Form A, (S)-4-(2,2-difluoro-7-((5-methoxy-7-methyl-1H-indol-4-yl)methyl)-7-azaspiro[3.5]nonan-6-yl)benzoic acid]
[1]
  Cmax: 6.1 µM
  AUC(0-t): 79.2 µM·h
  concentration at 24 h: 1.9 µM
[2]
  Cmax: 157 µM
  AUC(0-t): 958 µM·h
  concentration at 24 h: 3.3 µM
[3]
  Cmax: 80 µM
  AUC(0-t): 547 µM·h
  concentration at 24 h: 2.7 µM
Oral dosing, smaller particle size
  Cmax, AUC0-24 and C24h compared with the amorphous form: higher

Reference: patent US20260159497A1, “SOLID FORMS OF A COMPLEMENT FACTOR B INHIBITOR” (Novartis Pharma AG, priority 2022, published 2026)
